These results are taken from patent US5008267A, “Pyrimidinedione compounds, method of producing the same and antiarrythmic agents containing the same” (Mitsui Toatsu Chemicals, Incorporated, priority 1988, dated 1991).

Structures are written as SMILES. Structures can show the parent of a compound that is named as a salt.

The subject of data set [1] is Purkinje fiber of the right ventricular free wall (myocardial action potential). Nature of the data set: Influence on myocardial action potential duration time (APD75), isolated right ventricular free wall, microelectrode in Purkinje fiber. Format: cell-based, dog. The following applies: Canis lupus familiaris, 20 min, 20 minutes' incubation, (B-A)/A×100, read-out: APD75 (%); for activation at 1 µg/mL: 1.0 μg/ml; for activation at 3 µg/mL: 3.0 μg/ml; for activation at 10 µg/mL: 10.0 μg/ml.

A short description of data set [2]: Toxicity test, mortality rate 24 hours after administration. The following applies: mouse, in vivo, po, 300 mg/kg (p.o.). The protocol:
Each of the compounds prepared in the above-mentioned examples was administered into a mouse (ddY strain, male). In each case, oral administration (p.o.) and intra peritoneal administration (i.p.) were separately carried out in a dose of 300 mg/kg and 250 mg/kg, respectively.
A mortality rate (number of specimens: one group=2 to 4 mice) of the mice 24 hours after the administration was calculated, and the results are set forth in Table 3.
Following the same procedure as in Toxicity Test 1, toxicity of the respective compounds prepared in the above examples in Table 5 was tested to calculate a mortality rate of mice.
Administration was made by oral administration (p.o.) in an amount of 300 mg/kg of each compound for one mouse.
Following the same procedure as in Toxicity Test 1, toxicity of the respective compounds prepared in the above examples in Table 7 was tested to calculate a mortality rate of mice.

Data set [3] concerns ventricular muscle refractory period. Nature of the data set: Influence on ventricular muscle refractory period (ERP). The following applies: Canis lupus familiaris, iv, i.v., (W-Y)/Y×100, read-out: ERP (%; extensibility of refractory period). Format: in vivo, mongrel dog. In outline:
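Anesthetized (pentobarbital 30 mg/kg i.v.) mongrel dog, compound given i.v. or intraduodenally; right ventricle paced via bipolar electrodes at 400 msec, 4 msec pulses, twice threshold, sinus pacemaker abolished with alcohol. Refractory period taken as shortest inter-train interval (10 msec steps) losing response; ERP (%) = (after − before)/before × 100.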

Consider `Cn1c(N2CCN(CCCOc3ccc([N+](=O)[O-])cc3C(=O)c3ccccc3Cl)CC2)cc(=O)n(C)c1=O` [Compound 105, 1,3-dimethyl-6-{4-<3-[2-(2-chlorobenzoyl)-4-nitrophenoxy]propyl>piperazin-1-yl}-2,4(1H,3H)-pyrimidinedione oxalate], for which, in data set [1], the activation at 1 µg/mL is 11%, the activation at 3 µg/mL is 23% and the activation at 10 µg/mL came to 28%. Besides, the mortality at 24 h in data set [2] was determined as 0%. Besides, in data set [3], the change in vivo at 0.1 mg/kg stood at 0%, the change in vivo at 0.3 mg/kg worked out at 0%, the change in vivo at 1 mg/kg worked out at 6.3% and the change in vivo at 3 mg/kg was 6.3%.
Consider `Cn1c(N2CCN(CCCOc3ccc([N+](=O)[O-])cc3Cl)CC2)cc(=O)n(C)c1=O` [Compound 141, 1,3-dimethyl-6-{4-[3-(2-chloro-4-nitrophenyloxy)propyl]piperazin-1-yl}-2,4(1H,3H)-pyrimidinedione hydrochloride], for which, in data set [1], the activation at 1 µg/mL came to 27% and the activation at 3 µg/mL was 41%. Moreover, in data set [2], the mortality at 24 h amounted to 0%. Also, in data set [3], the change in vivo at 0.1 mg/kg is 0%, the change in vivo at 0.3 mg/kg is 2.1%, the change in vivo at 1 mg/kg was 2.1% and the change in vivo at 3 mg/kg turned out to be 15%.
Consider `Cn1c(N2CCN(CCCOc3cc([N+](=O)[O-])ccc3O)CC2)cc(=O)n(C)c1=O` [Compound 145, 1,3-dimethyl-6-{4-[3-(2-hydroxy-5-nitrophenyloxy)propyl]piperazin-1-yl}-2,4(1H,3H)-pyrimidinedione hydrochloride], for which, in data set [1], the activation at 1 µg/mL is 7%, the activation at 3 µg/mL was 16% and the activation at 10 µg/mL was 23%. For the same molecule, the mortality at 24 h in data set [2] was found to be 0%. For the same molecule, in data set [3], the change in vivo at 0.1 mg/kg stood at 0%, the change in vivo at 0.3 mg/kg came out at 6.7%, the change in vivo at 1 mg/kg is 6.7% and the change in vivo at 3 mg/kg is 20%.
Take `CSc1ccc(OCCCN2CCN(c3cc(=O)n(C)c(=O)n3C)CC2)c([N+](=O)[O-])c1` [Compound 147, 1,3-dimethyl-6-{4-[3-(4-methylthio-2-nitrophenyloxy)propyl]piperazin-1-yl}-2,4(1H,3H)-pyrimidinedione hydrochloride]: in data set [1], the activation at 1 µg/mL came to 14% and the activation at 3 µg/mL turned out to be 18%. This molecule displayed a mortality at 24 h in data set [2] of 0%. In data set [3], the change in vivo at 0.1 mg/kg was 0%, the change in vivo at 0.3 mg/kg amounted to 0% and the change in vivo at 1 mg/kg was 0%.
Consider `C=CCOc1cc([N+](=O)[O-])ccc1OCCCN1CCN(c2cc(=O)n(C)c(=O)n2C)CC1` [Compound 161, 1,3-dimethyl-6-{4-[3-(2-allyloxy-4-nitrophenyloxy)propyl]piperazin-1-yl}-2,4(1H,3H)-pyrimidinedione hydrochloride], for which, in data set [1], the activation at 1 µg/mL turned out to be 26% and the activation at 3 µg/mL amounted to 39%. Further, in data set [2], the mortality at 24 h is 0%. Besides, in data set [3], the change in vivo at 0.1 mg/kg was 0%, the change in vivo at 0.3 mg/kg came to 6.7%, the change in vivo at 1 mg/kg came to 6.7% and the change in vivo at 3 mg/kg stood at 6.7%.
As for `COC(=O)CN(CCCNc1ccc([N+](=O)[O-])cc1)CCNc1cc(=O)n(C)c(=O)n1C` [Compound 166, 1,3-dimethyl-6-{2-[N-methoxycarbonylmethyl-3-(4-nitroanilino)propylamino]ethylamino}-2,4(1H,3H)-pyrimidinedione hydrochloride], in data set [1], the activation at 1 µg/mL is 8% and the activation at 3 µg/mL is 18%. In addition, in data set [2], the mortality at 24 h came out at 0%. In data set [3], the change in vivo at 0.1 mg/kg was 6.7%, the change in vivo at 0.3 mg/kg came out at 6.7%, the change in vivo at 1 mg/kg amounted to 6.7% and the change in vivo at 3 mg/kg stood at 6.7%.
Consider `CC(=O)OCCN(CCCc1ccc([N+](=O)[O-])cc1)CCNc1cc(=O)n(C)c(=O)n1C` [Compound 167, 1,3-dimethyl-6-{2-[N-(2-acetoxyethyl)-3-(4-nitrophenyl)propylamino]ethylamino}-2,4(1H,3H)-pyrimidinedione oxalate], for which, in data set [1], the activation at 1 µg/mL turned out to be 16%, the activation at 3 µg/mL turned out to be 21% and the activation at 10 µg/mL stood at 26%. This molecule also showed a mortality at 24 h in data set [2] of 0%. Besides, in data set [3], the change in vivo at 0.1 mg/kg is 8%, the change in vivo at 0.3 mg/kg came out at 8%, the change in vivo at 1 mg/kg amounted to 15% and the change in vivo at 3 mg/kg was 15%.

As a reminder, the mortality is the share of the test organisms that died. Read a low mortality as more survivors.
